From patent publication US20090062342A1, “AMINES” (Actelion Pharmaceuticals Ltd., priority 2006, published 2009)

Target: T1, recombinant human renin (Homo sapiens, UniProt P00797)
T1 sequence (P00797 67-406): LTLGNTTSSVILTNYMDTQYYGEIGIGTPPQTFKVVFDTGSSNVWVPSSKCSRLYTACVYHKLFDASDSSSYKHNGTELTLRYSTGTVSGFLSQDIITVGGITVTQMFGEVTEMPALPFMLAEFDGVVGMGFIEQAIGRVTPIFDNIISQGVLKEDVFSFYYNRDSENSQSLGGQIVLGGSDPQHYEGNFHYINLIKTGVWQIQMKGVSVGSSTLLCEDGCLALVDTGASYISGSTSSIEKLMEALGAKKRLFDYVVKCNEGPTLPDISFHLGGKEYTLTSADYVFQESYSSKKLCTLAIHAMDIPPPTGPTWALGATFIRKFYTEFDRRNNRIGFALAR
Assay: Primary renin inhibition assay: IC50 in buffer, 384 well MTP (AngI quantified by EIA)
Experimental: Enzyme Immuno Assay (EIA) to Estimate AngI Accumulation and Renin Inhibition
The mixture was incubated overnight at 4° C., then dialyzed against 2 liters of 0.9% NaCl, twice for 4 h at rt, followed by dialysis against 2 liters of PBS 1× overnight at rt. […] The conjugate can be stored in polypropylene tubes in 0.05% sodium azide at 4° C. for at least 12 months.
The AngI (1-10)/BSA coated MTP were washed 3 times with wash buffer (PBS 1×, 0.01% Tween 20) and filled with 75 μl of primary antibody solution (anti-AngI antiserum, pre-diluted 1:10 in horse serum), diluted to a final concentration of 1:100'000 in assay buffer (PBS 1×, 1 mM EDTA, 0.1% BSA, pH 7.4). 5 μl of the renin reaction (or standards in assay buffer) (see below) were added to the primary antibody solution and the plates were incubated overnight at 4° C. […]
In the second step, the accumulated AngI is measured by an immunological assay (enzyme immuno assay, EIA). […]
Test compounds were dissolved and diluted in 100% DMSO and 2.5 μl added to the premix, then incubated at 37° C. for 3 h. At the end of the incubation period, 5 μl of the renin reaction (or standards in assay buffer) were transferred into EIA assays (as described above) and AngI produced by renin was quantified.

IC50: 0.23 nM
Compound: COCCCc1cc(CN(C(=O)[C@H]2CNCC[C@]2(O)c2ccc(OCCOc3c(Cl)cc(C)cc3Cl)nc2)C2CC2)c(Cl)c[n+]1[O-] [Example 7, (3′S,4′R)-6-[2-(2,6-Dichloro-4-methyl-phenoxy)-ethoxy]-4′-hydroxy-1′,2′,3′,4′,5′,6′-hexahydro-[3,4′]bipyridinyl-3′-carboxylic acid [5-chloro-2-(3-methoxy-propyl)-1-oxy-pyridin-4-ylmethyl]-cyclopropyl-amide]
